Patent publication US4401659A, “Muramyl-peptides fixed to peptide-polymers and pharmaceutical compositions containing them” (Agence National de Valorisation de la Recherche (ANVAR), priority 1979, dated 1983)

Columns and labels:
Klebsiella pneumoniae = experiment: Anti-infectious activity with respect to Klebsiella, mice treated i.v. 24 hours before i.m. inoculation; format: in vivo; conditions: for Number of survivors at D + 8: controls 4 of 32; for Number of survivors at D + 5: controls 7 of 32; for Number of survivors at D + 3: controls 16 of 32; for Percentage of protection: difference in percentages of survivors versus control group
Excerpt: The testing procedure is described in the article of CHEDID L. and Col., Proc. Natl. Acad. Sci. USA, 1977, 74, 2089.
It was shown that a dose of about 10^4 Klebsiella pneumoniae, injected by the intramuscular route in mice, results in the progressive death of a considerable part, if not the whole, of the animals in the week following the inoculation. After eight days, the survival of the animals was definitely achieved.
The survival of groups of mice inoculated under the above-indicated conditions and treated by means of the products according to the invention, was recorded.
For these trials, hybrid mice (C57Bl/6 x AKR)F1 raised in the PASTEUR […], from strains derived from the C.N.R.S. breeding station at ORLEANS were used.
The infection by Klebsiella pneumoniae, a strain of the 2-capsular type, biotype d, was done from a culture of 16 hours in a medium for pneumococci (No. 53515, […] PASTEUR). The infecting dose was 1.5.10^4 Klebsiella; it was administered by the intramuscular route.
The administration of the tested product was carried out by the intravenous route in 0.2 ml of apyrogenic physiological solution, the controls receiving the solution alone. It was carried out 24 hours before the inoculation.
The percentage of protection indicated is the difference in the percentages of survivors of the treated group with respect to the control group.

Klebsiella = experiment: Anti-infectious activity with respect to Klebsiella, young mice of 7 days, s.c. treatment and s.c. infection; format: in vivo; conditions: for Number of survivors at D + 8: controls 0 of 53; for Number of survivors at D + 5: controls 1 of 53; for Number of survivors at D + 3: controls 5 of 53
Experimental: In these trials, the product studied was administered, by the sub-cutaneousroute, 24 hours before the infecting test. For the latter, the infecting dose was 1.2.10^3 Klebsiella; it was also administered by the sub-cutaneous route.

[1] = Sensitisation trials: plantar injection in IFA or CFA, dermal injection three weeks later
Experimental: These trials were undertaken to study the possible immunogenic properties of the products according to the invention. At the same time, sensitisation tests with respect to various products were carried out.
The tests were carried out on guinea-pigs. The preparations shown in column 1 of the Table of the results were injected by the plantar route. They comprise 100 μg of the product tested incorporated in incomplete FREUND adjuvant (IFA) or in complete FREUND adjuvant (CFA).
Three weeks after this first injection, 50 μg of the products indicated in the upper portion of the Table of results were injected by the dermal route. Possible reactions were observed 48 hours later.

[2] = i.v. at D-1, 1 μg (weight of glycopeptide), 24 mice
[3] = i.v. at D-1, 10 μg (weight of glycopeptide), 32 mice
[4] = s.c. at D-1, 1 μg, 39 young mice
[5] = s.c. at D-1, 10 μg, 75 young mice

With “multi-[poly-(N-acetyl-muramyl-D-alanyl-D-isoglutaminyl)-D,L-alanyl]-poly-L-lysine [MDP(D-D)(A--L)]” the “Number of survivors at D + 8” value (Klebsiella pneumoniae; [2]) was 6, the “Number of survivors at D + 5” value (Klebsiella pneumoniae; [2]) was 7 and the “Number of survivors at D + 3” value (Klebsiella pneumoniae; [2]) was 15. For the same substance, the Percentage of protection (Klebsiella pneumoniae; [2]) was 9%, the “Number of survivors at D + 8” value (Klebsiella pneumoniae; [3]) was 17 and the “Number of survivors at D + 5” value (Klebsiella pneumoniae; [3]) was 19. The “Number of survivors at D + 3” value (Klebsiella pneumoniae; [3]) was 26, the Percentage of protection (Klebsiella pneumoniae; [3]) was 38% and the “Number of survivors at D + 8” value (Klebsiella; [4]) was 3. The “Number of survivors at D + 5” value (Klebsiella; [4]) was 6, the “Number of survivors at D + 3” value (Klebsiella; [4]) was 19 and the “Number of survivors at D + 8” value (Klebsiella; [5]) was 18. For the same substance, the “Number of survivors at D + 5” value (Klebsiella; [5]) was 28, the “Number of survivors at D + 3” value (Klebsiella; [5]) was 50 and the “adjuvant to specific immunity” value ([1]; administered with ovalbumin) was “is not adjuvant to specific immunity”. The “sensitivity reaction with respect to itself and to adjuvant agents like MDP” value ([1]; guinea-pigs) was “does not elicit a sensitivity reaction”.
